Measured values reported in US10676468B2, “N-(3-heteroarylaryl)-4-arylarylcarboxamides and analogs as hedgehog pathway inhibitors and use thereof” (IMPACT Therapeutics, Inc., priority 2012, dated 2020).
Where a name gives a salt, the structure may show the parent alone.

Columns and labels:
Format in all cases: cell-based, mouse
[1] = system: Hedgehog Signaling Pathway; test: Gli-Luc reporter gene cell assay in C3H10T1/2/Gli-Luc cells stimulated with Shh; conditions: 30 nM Shh, luciferase activity (RLU), read-out: IC50 values of compounds that inhibit Hh pathway
Procedure, shortened: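 C3H10T1/2 cells stably carrying Gli-responsive luciferase were seeded overnight, then treated 24 h at 37 °C with compound (7-point dilution series, DMSO control) plus Shh (30 nM in added medium). Lysate luciferase RLU fitted against log concentration to derive IC50.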

[2] = system: Hedgehog Signaling Pathway; test: SAG-induced differentiation of C3H10T1/2 cells into osteoblastic cells, intracellular alkaline phosphatase activity; conditions: 1 μM SAG, 5 days, alkaline phosphatase activity (OD405), read-out: IC50 values of compounds that inhibit Hh pathway
Procedure, shortened: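 Mouse C3H10T1/2 cells were induced with SAG and exposed to compound (10 μM to 1 nM) for 5 days at 37 °C. Cells were lysed in 0.2% Triton, and alkaline phosphatase activity was read as OD405 over 30 min at 37 °C in pH 9.8 substrate buffer. IC50 came from a non-linear fit of background-subtracted OD405 against log concentration.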

[3] = system: Hedgehog Signaling Pathway; test: SHH-induced differentiation of C3H10T1/2 cells into osteoblastic cells, intracellular alkaline phosphatase activity; conditions: 10 nM SHH-N, 5 days, alkaline phosphatase activity (OD405), read-out: IC50 values of compounds that inhibit Hh pathway
Procedure, shortened: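 Mouse C3H10T1/2 cells were induced with 10 nM SHH-N alongside test compound (10 μM–10 nM) for 5 days at 37 °C. Cells were lysed in 0.2% Triton, and alkaline phosphatase activity was read at OD405 over 30 min at 37 °C with the background reading subtracted. IC50 came from a nonlinear fit against log concentration.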

[4] = Mus musculus, C3H 10T1/2, 120 h

Compound	IC50 ([1]; Mus musculus, C3H 10T1/2, 24 h) [nM]	IC50 [2, 4] [nM]	IC50 [3, 4] [nM]	IC50 ([1]; 24 hours) [nM]	IC50 [2] [nM]	IC50 [3] [nM]
CCN1[C@H](C)CN(c2ccc(C(=O)Nc3ccc(Cl)c(-c4nc5ccccc5[nH]4)c3)c(C)c2)C[C@@H]1C [Example 100, N-(3-(1H-benzo[d]imidazol-2-yl)-4-chlorophenyl)-2-methyl-4-((3S,5R)-4-ethyl-3,5-dimethylpiperazin-1-yl)benzamide]	0.58	33	2.3	–	–	–
CC(C)c1cnc(-c2cc(NC(=O)c3ccc(N4C[C@@H](C)N(C)[C@@H](C)C4)cc3Cl)ccc2Cl)[nH]1 [Example 189, N-(3-(5-isopropyl-1H-imidazol-2-yl)-4-chlorophenyl)-2-chloro-4-((3S,5R)-3,4,5-trimethylpiperazin-1-yl)benzamide Dihydrochloride]	0.82	30	5.2	–	–	–
CCN1[C@H](C)CN(c2ccc(C(=O)Nc3ccc(Cl)c(-c4nc5ccccc5[nH]4)c3)cn2)C[C@@H]1C [Example 105, N-(3-(1H-benzo[d]imidazol-2-yl)-4-chlorophenyl)-6-((3S,5R)-4-ethyl-3,5-dimethylpiperazin-1-yl)nicotinamide]	1.1	58	2.2	–	–	–
Cc1cc(N2C[C@@H](C)N(C(C)C)[C@@H](C)C2)ccc1C(=O)Nc1ccc(Cl)c(-c2nc3ccccc3[nH]2)c1 [Example 101, N-(3-(1H-benzo[d]imidazol-2-yl)-4-chlorophenyl)-2-methyl-4-((3S,5R)-4-isopropyl-3,5-dimethylpiperazin-1-yl)benzamide]	0.67	46	0.64	–	–	–
Nc1cc(-c2ccc(C(F)(F)F)cc2)ccc1C(=O)Nc1ccc(Cl)c(-c2nc3ccccc3[nH]2)c1 [Example 25, N-(3-(1H-benzo[d]imidazol-2-yl)-4-chlorophenyl)-3-amino-4′-(trifluoromethyl)biphenyl-4-carboxamide]	4	191	5.5	–	–	–
Cc1ccc(NC(=O)c2ccc(N3C[C@@H](C)N(C)[C@@H](C)C3)cc2Cl)cc1-c1nc2ccc(Cl)cc2[nH]1 [Example 113, N-(3-(6-chloro-1H-benzo[d]imidazol-2-yl)-4-methylphenyl)-2-chloro-4-((3S,5R)-3,4,5-trimethylpiperazin-1-yl)benzamide]	27	1040	> 10000	–	–	–
Cc1nc(N2C[C@@H](C)O[C@@H](C)C2)ccc1C(=O)Nc1cnc(Cl)c(-c2nc3ccccc3[nH]2)c1 [Example 84, N-(5-(1H-benzo[d]imidazol-2-yl)-6-chloropyridin-3-yl)-2-methyl-6-((2S,6R)-2,6-dimethylmorpholino)nicotinamide]	10	44	7.1	–	–	–
COc1ccc(-c2ccc(C(=O)Nc3ccc(Cl)c(-c4nc5ccccc5[nH]4)c3)c(C)c2)cn1 [Example 66, N-(3-(1H-benzo[d]imidazol-2-yl)-4-chlorophenyl)-2-methyl-4-(6-methoxypyridin-3-yl)benzamide]	6.1	24	7.1	–	–	–
C[C@@H]1CN(c2ccc(C(=O)Nc3ccc(Cl)c(-c4ncc(C5CCC5)[nH]4)c3)c(Cl)c2)C[C@H](C)N1C [Example 180, N-(3-(5-cyclobutyl-1H-imidazol-2-yl)-4-chlorophenyl)-2-chloro-4-((3S,5R)-3,4,5-trimethylpiperazin-1-yl)benzamide]	2.4	47	9.9	–	–	–
Cc1cc(-c2ccc(C(F)(F)F)cc2)ccc1C(=O)Nc1cnc(Cl)c(-c2nc3ccccc3[nH]2)c1 [Example 69, N-(5-(1H-benzo[d]imidazol-2-yl)-6-chloropyridin-3-yl)-3-methyl-4′-(trifluoromethyl)biphenyl-4-carboxamide]	4.2	33	0.55	–	–	–
Cc1cc(-c2ccc(C(F)(F)F)cc2)ccc1C(=O)Nc1ccc(Cl)c(-c2nc3ccccc3[nH]2)c1 [Example 21, N-(3-(1H-benzo[d]imidazol-2-yl)-4-chlorophenyl)-3-methyl-4′-(trifluoromethyl)biphenyl-4-carboxamide]	5.8	30	2.3	–	–	–
C[C@@H]1CN(c2ccc(C(=O)Nc3ccc(Cl)c(-c4ncccn4)c3)c(Cl)c2)C[C@H](C)N1C [Example 209, N-(3-(pyrimidin-2-yl)-4-chlorophenyl)-2-chloro-4-((3S,5R)-3,4,5-trimethylpiperazin-1-yl)benzamide]	> 10000	1800	> 10000	–	–	–
C[C@@H]1CN(c2ccc(C(=O)Nc3cnc(Cl)c(-c4nc5ccccc5[nH]4)c3)c(Cl)c2)C[C@H](C)N1C [Example 127, N-(5-(1H-benzo[d]imidazol-2-yl)-6-chloropyridin-3-yl)-2-chloro-4-((3S,5R)-3,4,5-trimethylpiperazin-1-yl)benzamide]	1.1	34	1.1	–	–	–
C[C@@H]1CN(c2ccc(C(=O)Nc3ccc(Cl)c(-c4nc5cscc5[nH]4)c3)c(Cl)c2)C[C@H](C)N1C [Example 199, N-(3-(1H-thieno[3,4-d]imidazol-2-yl)-4-chlorophenyl)-2-chloro-4-((3S,5R)-3,4,5-trimethylpiperazin-1-yl)benzamide]	0.27	11	0.19	–	–	–
C[C@@H]1CN(c2cc(Cl)c(C(=O)Nc3ccc(Cl)c(-c4ncc(-c5cccs5)[nH]4)c3)cc2F)C[C@H](C)N1C [Example 157, N-(3-(5-(thiophen-2-yl)-1H-imidazol-2-yl)-4-chlorophenyl)-2-chloro-5-fluoro-4-((3S,5R)-3,4,5-trimethylpiperazin-1-yl)benzamide]	0.23	10	0.15	–	–	–
C[C@@H]1CN(c2ccc(C(=O)Nc3ccc(Cl)c(-c4ncc(-c5ccc(Cl)s5)[nH]4)c3)c(Cl)c2)C[C@H](C)N1C [Example 138, N-(3-(5-(5-chlorothiophen-2-yl)-1H-imidazol-2-yl)-4-chlorophenyl)-2-chloro-4-((3S,5R)-3,4,5-trimethylpiperazin-1-yl)benzamide]	0.58	39	1.6	–	–	–
Cc1cc(-c2ccc(C(F)(F)F)cc2)ccc1C(=O)Nc1ccc(C)c(-c2nc3ccccc3[nH]2)c1 [Example 46, N-(3-(1H-benzo[d]imidazol-2-yl)-4-methylphenyl)-3-methyl-4′-(trifluoromethyl)biphenyl-4-carboxamide]	5.5	89	5.1	–	–	–
Cc1c(C(=O)Nc2ccc(Cl)c(-c3nc4ccccc4[nH]3)c2)ccc(N2C[C@@H](C)N(C)[C@@H](C)C2)c1F [Example 122, N-(3-(1H-benzo[d]imidazol-2-yl)-4-chlorophenyl)-2-methyl-3-fluoro-4-((3S,5R)-3,4,5-trimethylpiperazin-1-yl)benzamide]	0.39	29	0.52	–	–	–
C[C@@H]1CN(c2ccc(C(=O)Nc3ccc(Cl)c(-c4ncc(C5CCCCC5)[nH]4)c3)c(Cl)c2)C[C@H](C)N1C [Example 184, N-(3-(5-cyclohexyl-1H-imidazol-2-yl)-4-chlorophenyl)-2-chloro-4-((3S,5R)-3,4,5-trimethylpiperazin-1-yl)benzamide]	10	184	28	–	–	–
CC(C)N1[C@H](C)CN(c2ccc(C(=O)Nc3ccc(Cl)c(-c4ncc(-c5cccs5)[nH]4)c3)c(Cl)c2)C[C@@H]1C [Example 159, N-(3-(5-(thiophen-2-yl)-1H-imidazol-2-yl)-4-chlorophenyl)-2-chloro-4-((3S,5R)-4-isopropyl-3,5-dimethylpiperazin-1-yl)benzamide]	0.31	10	0.36	–	–	–
C[C@@H]1CN(c2cc(Cl)c(C(=O)Nc3ccc(Cl)c(-c4ncc(-c5ccco5)[nH]4)c3)cc2F)C[C@H](C)N1C [Example 149, N-(3-(5-(furan-2-yl)-1H-imidazol-2-yl)-4-chlorophenyl)-2-chloro-5-fluoro-4-((3S,5R)-3,4,5-trimethylpiperazin-1-yl)benzamide]	0.28	15	0.27	–	–	–
C[C@@H]1CN(c2cc(Cl)c(C(=O)Nc3ccc(Cl)c(-c4nc5ccccc5[nH]4)c3)cc2F)C[C@H](C)N1C [Example 123, N-(3-(1H-benzo[d]imidazol-2-yl)-4-chlorophenyl)-2-chloro-5-fluoro-4-((3S,5R)-3,4,5-trimethylpiperazin-1-yl)benzamide]	0.39	53	0.97	–	–	–
CS(=O)(=O)c1ccc(C(=O)Nc2ccc(Cl)c(-c3ccccn3)c2)c(Cl)c1 [GDC-0449, reference compound]	43	108	38	–	–	–
Cc1cc(N2C[C@@H](C)N(C)[C@@H](C)C2)ccc1C(=O)Nc1ccc(Cl)c(-c2nc3cscc3[nH]2)c1 [Example 198]	–	–	–	0.29	26	0.3
